pIC50: −log10 of the molar value. Values joined by “and” are separate entries in the source; they are usually repeats but may differ in a detail not shown here. Equal entries are not always repeated.
These compounds were tested against T1, recombinant active human PAI-1 (Homo sapiens (Human), UniProt P05121) (assay: Fluorometric PAI-1/uPA IC50 plate assay at pH 7.8). Conditions: physiologic buffer.
Format: biochemical
Procedure: To determine the efficacy of various synthesized compounds as PAI-1 inhibitors at pH 7.8, additional fluorometric plate assays were carried out to measure the half maximal inhibitory concentration (IC50) of these compounds on recombinant active human PAI-1 in vitro.
PAI-1 inhibitor compounds were dissolved in DMSO to a final concentration of (10-50 mM), depending upon solubility. […] Fluorescence, as a measure of the rate of AMC release by uPA, was read at the following wavelengths; excitation 370 nm, emission 440 nm. Controls included PAI-1 and uPA in the absence of compound and uPA alone. Percent PAI-1 inhibition was calculated using the following formula: [(uPA alone-uPA/PAI-1+ compound)/(uPA alone-PAI-1/uPA)]*100%. The IC50 was calculated using Graphit (IC50 0-100%).

T1 sequence (P05121 24-402): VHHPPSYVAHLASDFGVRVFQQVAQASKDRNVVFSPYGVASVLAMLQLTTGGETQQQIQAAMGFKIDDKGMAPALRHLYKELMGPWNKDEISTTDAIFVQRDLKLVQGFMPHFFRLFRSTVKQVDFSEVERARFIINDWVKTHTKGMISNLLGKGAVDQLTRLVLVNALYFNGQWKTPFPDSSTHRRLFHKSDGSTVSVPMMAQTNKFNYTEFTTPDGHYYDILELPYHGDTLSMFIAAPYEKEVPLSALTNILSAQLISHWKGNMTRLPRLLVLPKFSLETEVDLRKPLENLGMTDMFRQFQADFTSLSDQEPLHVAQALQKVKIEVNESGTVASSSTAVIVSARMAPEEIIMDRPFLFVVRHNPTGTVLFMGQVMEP

Row | pIC50 | Compound
1 | 3.90 | CCCCCc1nc(Cc2ccc(O)c(O)c2)n(C(C)(C)C)n1 [C223]
2 | 3.93 | CCCCCc1nc(Cc2ccc(O)c(O)c2)n(C(C)(C)C)n1 [C220]
3 | 6.23 | CCCCCCCN(CCN(CCCCCCC)S(=O)(=O)c1ccc(O)c(O)c1)S(=O)(=O)c1ccc(O)c(O)c1 [C184]
4 | 5.01 | O=S(=O)(Nc1ccc(-c2cccc(F)c2)cc1)c1ccc(O)c(O)c1 [C190]
5 | 6.04 | CCCCCCc1ccc(NS(=O)(=O)c2ccc(O)c(O)c2)cc1 [C187]
6 | 5.27 | O=C1S/C(=C\c2ccc(O)c(O)c2)C(=O)N1Cc1ccccc1 [C199]
7 | 6.76 | O=S(=O)(c1ccccc1)N(CCc1ccc(O)c(O)c1)S(=O)(=O)c1ccc(O)c(O)c1 [C197]
8 | 2.79 | CC(C)(C)n1nc(C2CC2)nc1Cc1ccc(O)c(O)c1 [C221]
9 | 5.26 | CCCCCCCCN(CCCCCCCC)S(=O)(=O)c1ccc(O)c(O)c1 [C170]
10 | 6.21 | CCCCCCCCN(CCN(CCCCCCCC)S(=O)(=O)c1ccc(O)c(O)c1)S(=O)(=O)c1ccc(O)c(O)c1 [C176]
11 | 5.31 | CCCCCCCCN(S(=O)(=O)c1cccc(O)c1)S(=O)(=O)c1ccc(O)c(O)c1 [C292]
12 | 5.64 | CCCCCCc1ccc(N(S(=O)(=O)c2ccc(CCC)cc2)S(=O)(=O)c2ccc(O)c(O)c2)cc1 [C189]
13 | 4.77 | O=C1S/C(=C\c2ccc(O)c(O)c2)C(=O)N1Cc1cccc(-c2ccc(OC(F)(F)F)cc2)c1 [C207, (Z)-5-(3,4-dihydroxybenzylidene)-3-((4′-(trifluoromethoxy)-[1,1′-biphenyl]-3-yl)methyl)thiazolidine-2,4-dione]
14 | 5.78 | CCCCCCN(CCCCCC)S(=O)(=O)c1ccc(O)c(O)c1 [C171]
15 | 5.17 | CCCCCCCCN(CC(O)c1ccccc1)S(=O)(=O)c1ccc(O)c(O)c1 (stereo not shown) [C175]
16 | 3.92 | CCCCCCCCN(S(=O)(=O)c1ccc(O)cc1)S(=O)(=O)c1cccc(O)c1 [C294]
17 | 3.63 | CC(C)(C)n1nc(-c2ccc(O)cc2)nc1Cc1ccc(O)c(O)c1 [C222]
18 | 5.62 | CCCCCCCCN(Cc1cccc(C(F)(F)F)c1)S(=O)(=O)c1ccc(O)c(O)c1 [C179]
19 | 4.13 | O=S(=O)(NCCc1ccccc1)c1ccc(O)c(O)c1 [C233]
20 | 5.87 | CCCCCCCCN(CCCCCC)S(=O)(=O)c1ccc(O)c(O)c1 [C180]
21 | 6.35 | CCCCCCCCCCN(CCN(C)S(=O)(=O)c1ccc(O)c(O)c1)S(=O)(=O)c1ccc(O)c(O)c1 [C196]
22 | 4.77 | O=C1S/C(=C\c2ccc(O)c(O)c2)C(=O)N1Cc1ccc(Br)cc1 [C203]
23 | 4.23 | CCCCN(C)C(=O)CSc1ccc(O)c(O)c1 [C200]
24 | 6.04 | CCCCCCCCCCCCc1ccc(N(S(=O)(=O)c2ccc(O)c(O)c2)S(=O)(=O)c2ccc(O)c(O)c2)cc1 [C195]
25 | 4.87 | O=S(=O)(NCc1ccc(Cl)c(C(F)(F)F)c1)c1ccc(O)c(O)c1 [C303]
26 | 7.48 | CCCCCCCN(S(=O)(=O)c1ccc(O)c(O)c1)S(=O)(=O)c1ccc(O)c(O)c1 [C182]
27 | 3.26 | O=C(Nc1ccccc1)[C@@H]1CCCN1S(=O)(=O)c1ccc(O)c(O)c1 [C193]
28 | 4.72 | CCCCCCCCN(S(=O)(=O)c1ccc(-c2ccc(OC(F)(F)F)cc2)cc1)S(=O)(=O)c1ccc(O)c(O)c1 [C173]

Row | pIC50 | Compound
29 | 7.46 | O=C(OCC(CNS(=O)(=O)c1cccc(C(F)(F)F)c1)OC(=O)c1ccc(O)c(O)c1)c1ccc(O)c(O)c1 (stereo not shown) [C204]
30 | 5.70 | CCCCCCCCCCN(CCN(CCCCCCCCCC)S(=O)(=O)c1ccc(O)c(O)c1)S(=O)(=O)c1ccc(O)c(O)c1 [C168]
31 | 5.36 | CCCCCCCCN(S(=O)(=O)c1ccc(O)cc1)S(=O)(=O)c1ccc(O)c(O)c1 [C224]
32 | 3.72 | O=S(=O)(NCCc1ccc(O)c(O)c1)c1ccccc1 [C210]
33 | 4.88 | O=S(=O)(NCCCc1ccccc1)c1ccc(O)c(O)c1 [C232]
34 | 3.18 | O=C(O)CCCCNS(=O)(=O)c1ccc(O)c(O)c1 [C249]
35 | 5.16 | O=S(=O)(c1ccc(O)c(O)c1)N1CCC[C@H]1CCc1ccccc1 [C186]
36 | 3.74 | CC(C)(C)n1nc(-c2ccccc2)nc1-c1ccc(O)c(O)c1 [C201, 4-(1-(tert-butyl)-3-phenyl-1H-1,2,4-triazol-5-yl)benzene-1,2-diol]
37 | 5.89 | CCCCCCCCN(S(=O)(=O)c1ccc(CCCCC)cc1)S(=O)(=O)c1ccc(O)c(O)c1 [C191]
38 | 5.30 | O=C1S/C(=C\c2ccc(O)c(O)c2)C(=O)N1Cc1cccc(Br)c1 [C206, (Z)-3-(3-bromobenzyl)-5-(3,4-dihydroxybenzylidene)thiazolidine-2,4-dione]
39 | 7.29 | O=S(=O)(NCCc1ccc(O)c(O)c1)c1ccc(O)c(O)c1 [C198]
40 | 5.29 | CCCCCCCCN(Cc1cccc(Cl)c1)S(=O)(=O)c1ccc(O)c(O)c1 [C177]
41 | 6.92 | CCCCCCc1ccc(N(S(=O)(=O)c2ccc(O)c(O)c2)S(=O)(=O)c2ccc(O)c(O)c2)cc1 [C188]
42 | 4.53 | NC(=O)[C@H](Cc1ccccc1)NS(=O)(=O)c1ccc(O)c(O)c1 [C270]
43 | 4.11 | CCCCCCCCN(S(=O)(=O)c1cccc(O)c1)S(=O)(=O)c1cccc(O)c1 [C293]
44 | 6.38 | CCCCCCCCCN(CCN(CCCCCCCCC)S(=O)(=O)c1ccc(O)c(O)c1)S(=O)(=O)c1ccc(O)c(O)c1 [C185]
45 | 5.70 | CCCCCCCCN(Cc1cc(Cl)c(O)c(Cl)c1)S(=O)(=O)c1ccc(O)c(O)c1 [C172]
46 | 4.11 | CC(C)(C)n1nc(-c2ccccc2)nc1Cc1ccc(O)c(O)c1 [C208]
47 | 4.52 | O=C(O)[C@@H](Cc1ccccc1)NS(=O)(=O)c1ccc(O)c(O)c1 [C275]
48 | 3.76 | O=C(OCCOC(=O)c1ccc(O)c(O)c1)c1cc(O)cc(O)c1 [C236]
49 | 4.13 | O=C(O)[C@H](NS(=O)(=O)c1ccc(O)c(O)c1)c1ccccc1 [C274]
50 | 5.74 | O=C(O)CCCCCNS(=O)(=O)c1ccc(O)c(O)c1 [C271]
51 | 6.74 | CCCCCCCCCN(S(=O)(=O)c1ccc(O)c(O)c1)S(=O)(=O)c1ccc(O)c(O)c1 [C183]
52 | 5.30 | O=S(=O)(c1ccc(O)c(O)c1)N1CCc2ccccc21 [C205]
53 | 4.79 | O=C(O)[C@H](Cc1ccccc1)NS(=O)(=O)c1ccc(O)c(O)c1 [C272]
54 | 4.25 | O=C(O)[C@@H](NS(=O)(=O)c1ccc(O)c(O)c1)c1ccccc1 [C273]
55 | 3.37 | O=C(CCc1ccc(O)c(O)c1)NCc1ccc(Cl)c(C(F)(F)F)c1 [C330, N-(4-chloro-3-(trifluoromethyl)benzyl)-3-(3,4-dihydroxyphenyl)propanamide]

Each compound was assayed against T1, recombinant active human PAI-1 (assay: Fluorometric PAI-1/uPA IC50 plate assay at pH 7.4). Conditions: physiologic buffer (40 mM HEPES, 100 mM NaCl, 0.05% Tween-20, 10% DMSO), read-out: PAI-1/uPA IC50 in buffer.
Format: biochemical
Procedure: To determine the efficacy of various synthesized compounds as PAI-1 inhibitors, a fluorometric plate assay was carried out to measure the half maximal inhibitory concentration (IC50) of these compounds on recombinant active human PAI-1 in vitro. An IC50 is a measure of the effectiveness of a compound in inhibiting biological or biochemical function. Stated another way, IC50 represents the concentration of a drug that is required for 50% inhibition in vitro.
PAI-1 inhibitor compounds were dissolved in DMSO to a final concentration of (10-50 mM), depending upon solubility. Compounds were then diluted in physiologic buffer (40 mM HEPES, 100 mM NaCl, 0.05% Tween-20, pH7.4) containing 10% DMSO and a dilution series (from 0 to 1000 uM depending on solubility) was prepared. 80 μL of compound was added per well to a 96-well black, opaque microplate in duplicate. 10 μL of 20 nM Recombinant active human PAI-1 (Molecular Innovations) in physiologic buffer (40 mM HEPES, 100 mM NaCl, 0.05% Tween-20, 10% DMSO, pH 7.4), or […] physiologic buffer with 10% human plasma, was added and the mixture was agitated for 15 minutes at room temperature. 10 μL of 25 nM uPA (Rheotromb®) was added to each reaction well and the plate was agitated for an additional 30 minutes at room temperature. Tripeptide aminomethylcoumarin Gly-Gly-Arg-AMC (Calbiochem) fluorogenic substrate (100 μL of 100 μM) was then added and residual uPA activity was determined based upon cleavage of this substrate. The rate of AMC release by uPA (fluorescence) was measured at an excitation wavelength of 370 nm and an emission wavelength of 440 nm. Controls included PAI-1 and uPA in the absence of compound and uPA alone. Percent PAI-1 inhibition was calculated using the following formula: [(uPA alone-uPA/PAI-1+ compound)/(uPA alone-PAI-1/uPA)]*100%. The IC50 was calculated using Graphit (IC50 0-100%).

Row | pIC50 | Compound
56 | 4.17 | CCCCCCCCN(S(=O)(=O)c1cccc(O)c1)S(=O)(=O)c1ccc(O)c(O)c1 [C292]
57 | 3.63 | CCCCCCCCN(S(=O)(=O)c1ccc(O)cc1)S(=O)(=O)c1cccc(O)c1 [C294]
58 | 4.90 | O=S(=O)(NCc1ccc(Cl)c(C(F)(F)F)c1)c1ccc(O)c(O)c1 [C303]
59 | 3.91 | CCCCCCCCN(S(=O)(=O)c1cccc(O)c1)S(=O)(=O)c1cccc(O)c1 [C293]
60 | 3.27 and 3.23 | Cc1oncc1C(=O)NCc1ccc(Cl)c(C(F)(F)F)c1 [C279]
61 | 3.15 | CON(C)C(=O)C(=O)NCc1ccc(Cl)c(C(F)(F)F)c1 [C328]
62 | 3.72 | O=C(NCc1ccc(Cl)c(C(F)(F)F)c1)C(=O)NNS(=O)(=O)c1ccccc1 [C334]
63 | 3.69 | COc1ccc(-c2nc(-c3ccc4c(c3)CC(=O)N4)cs2)cc1OC [C227, 5-(2-(3,4-dimethoxyphenyl)thiazol-4-yl)indolin-2-one]
64 | 3.44 | O=C(CCc1ccc(O)c(O)c1)NCc1ccc(Cl)c(C(F)(F)F)c1 [C330, N-(4-chloro-3-(trifluoromethyl)benzyl)-3-(3,4-dihydroxyphenyl)propanamide]

Same assay, conditions: physiologic buffer with 1.5% BSA (15 mg/mL), read-out: PAI-1/uPA IC50 in 1.5% BSA buffer

Row | pIC50 | Compound
65 | 3.26 and 3.30 | Cc1oncc1C(=O)NCc1ccc(Cl)c(C(F)(F)F)c1 [C279]
66 | 3.46 | CON(C)C(=O)C(=O)NCc1ccc(Cl)c(C(F)(F)F)c1 [C328]
67 | 3.95 | O=C(CCc1ccc(O)c(O)c1)NCc1ccc(Cl)c(C(F)(F)F)c1 [C330, N-(4-chloro-3-(trifluoromethyl)benzyl)-3-(3,4-dihydroxyphenyl)propanamide]

Same assay, conditions: physiologic buffer with 10% human plasma, read-out: PAI-1/uPA IC50 in 10% plasma buffer

Row | pIC50 | Compound
68 | 3.17 | Cc1oncc1C(=O)NCc1ccc(Cl)c(C(F)(F)F)c1 [C279]
69 | 3.50 | CON(C)C(=O)C(=O)NCc1ccc(Cl)c(C(F)(F)F)c1 [C328]
70 | 3.94 | O=C(CCc1ccc(O)c(O)c1)NCc1ccc(Cl)c(C(F)(F)F)c1 [C330, N-(4-chloro-3-(trifluoromethyl)benzyl)-3-(3,4-dihydroxyphenyl)propanamide]

Reference: patent US9718760B2, “Plasminogen activator inhibitor-1 inhibitors and methods of use thereof” (THE REGENTS OF THE UNIVERSITY OF MICHIGAN, priority 2012, dated 2017)
